The text below walks through data of patent publication US8927500B2, “Peptidomimetic macrocycles” (Aileron Therapeutics, Inc., priority 2012, dated 2015).

A word on the IC50: it is the concentration needed to halve the response being measured. The term Ki denotes the dissociation constant of the complex between target and ligand, obtained from inhibition or displacement.

Assay [1] addresses T1, MDMX (Homo sapiens, UniProt O15151).
T1 sequence (O15151 1-125): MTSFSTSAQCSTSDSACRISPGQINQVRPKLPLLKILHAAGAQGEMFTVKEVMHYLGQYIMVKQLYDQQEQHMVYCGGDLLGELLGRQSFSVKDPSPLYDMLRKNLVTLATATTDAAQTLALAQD
The experiment in a line: Competitive fluorescence polarization assay for MDMX. In kind it is binding. The following applies: competitive FP assay; for IC50: read-out: IC50 (MDMX); for Ki: read-out: Ki (MDMX). (In fluorescence polarisation assays a small probe gives low polarisation when free and higher when bound to something large.)

The target of assay [2] is MDM2 (Homo sapiens, UniProt Q00987). The experiment in a line: Competitive fluorescence polarization assay for MDM2. The note with it: competitive FP assay, MDM2; for IC50: read-out: IC50 (MDM2); for Ki: read-out: Ki (MDM2). In kind it is binding.
Assay [3] concerns SJSA-1 cells. As to the kind of experiment: Cell lysis by peptidomimetic macrocycles (LDH release). In kind it is cell-based. The note with it: 1 h at 37C. (In general: LDH in the medium is a marker of cell lysis.)

Where a SMILES comes first, the peptide text is derived from it. Bridges are numbered along the chain shown (N, C = ends). [ ]: non-standard residue; d: D form. R8 = C=CCCCCCC[C@@](C)(N)C(=O)O; Cha = N[C@@H](CC1CCCCC1)C(=O)O; hLeu = CC(C)CC[C@H](N)C(=O)O; S5 = C=CCCC[C@](C)(N)C(=O)O; Ac3c = NC1(C(=O)O)CC1; Aib = CC(C)(N)C(=O)O Bounds are passed on as bounds.

Chain of MDM2 (Q00987 1-125): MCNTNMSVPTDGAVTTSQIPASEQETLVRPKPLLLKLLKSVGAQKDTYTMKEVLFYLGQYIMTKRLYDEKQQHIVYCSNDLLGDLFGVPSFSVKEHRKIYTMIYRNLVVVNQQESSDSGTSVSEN

Consider `CC(=O)N[C@@H](Cc1ccccc1)C(=O)N[C@]1(C)CCCCCCC=CCCC[C@@](C)(C(=O)N[C@@H](C)C(=O)N[C@@H](C)C(=O)NC(C)(C)C(N)=O)NC(=O)[C@H](CC(C)C)NC(=O)C2(CC2)NC(=O)[C@H](CCC(=O)O)NC(=O)[C@H](Cc2c[nH]c3ccccc23)NC(=O)[C@H](Cc2ccc(O)cc2)NC(=O)[C@H](C)NC1=O` [compound 22] (Ac-F[R8]AYWE[Ac3c]L[S5]AA[Aib]-NH2; staple 2-9), for which, in assay [1], the IC50 was in the range of 10 to 100 nM and the Ki is 10 to 100 nM. In assay [2], the IC50 was 10 to 100 nM and the Ki was less than 10 nM. Also, in assay [3], the “6.25 uM % Lysed cells (1 h LDH)” value was determined as 0%, the “25 uM % Lysed cells (1 h LDH)” value was determined as 0% and the “50 uM % Lysed cells (1 h LDH)” value was found to be 0%.

For the compound `CC[C@H](C)[C@H](NC(=O)[C@H](C)NC(=O)[C@H](C)NC(=O)[C@]1(C)CCCC=CCCCCCC[C@@](C)(NC(=O)[C@H](Cc2ccccc2)NC(=O)[C@@H](NC(=O)[C@H](CC(C)C)NC(C)=O)[C@@H](C)O)C(=O)N[C@@H](C)C(=O)N[C@@H](Cc2ccc(C(=O)O)cc2)C(=O)N[C@@H](Cc2c[nH]c3ccccc23)C(=O)N[C@@H](C)C(=O)N[C@@H](CCC(N)=O)C(=O)N[C@@H](CC(C)C)C(=O)N1)C(=O)N[C@H](C)C(N)=O` (single isomer, unassigned) [compound 182], in assay [1], the IC50 lay within 100 to 1000 nM and the Ki is 10 to 100 nM. Moreover, in assay [2], the IC50 is less than 10 nM and the Ki was less than 10 nM. In assay [3], the “6.25 uM % Lysed cells (1 h LDH)” value turned out to be 0%, the “25 uM % Lysed cells (1 h LDH)” value was 3% and the “50 uM % Lysed cells (1 h LDH)” value came out at 6%.

As for `CC(=O)N[C@@H](CC(C)C)C(=O)N[C@H](C(=O)N[C@@H](Cc1ccccc1)C(=O)N[C@]1(C)CCCCCCC=CCCC[C@@](C)(C(=O)N[C@@H](CO)C(=O)N[C@@H](C)C(=O)N[C@@H](CCC(C)C)C(N)=O)NC(=O)[C@H](CC(C)C)NC(=O)[C@H](CCC(N)=O)NC(=O)[C@H](C)NC(=O)[C@H](Cc2c[nH]c3ccccc23)NC(=O)[C@H](Cc2ccc(O)cc2)NC(=O)[C@H](C)NC1=O)[C@@H](C)O` [compound 6] (Ac-LTF[R8]AYWAQL[S5]SA[hLeu]-NH2; staple 4-11), in assay [1], the IC50 lay in the range of 100 to 1000 nM and the inhibitory constant (Ki) lay in the range of 10 to 100 nM. For the same compound, in assay [2], the IC50 is 100 to 1000 nM and the Ki fell in the range of 10 to 100 nM. In assay [3], the “6.25 uM % Lysed cells (1 h LDH)” value stood at 1%, the “25 uM % Lysed cells (1 h LDH)” value is reported as 1% and the “50 uM % Lysed cells (1 h LDH)” value was 1%.

For `CC(=O)N[C@@H](CC(C)C)C(=O)N[C@H](C(=O)N[C@@H](Cc1ccccc1)C(=O)N[C@]1(C)CCCCCCC=CCCC[C@@](C)(C(=O)N[C@@H](CO)C(=O)N[C@@H](C)C(=O)N[C@@H](C)C(N)=O)NC(=O)[C@H](CC(C)C)NC(=O)[C@H](CCC(N)=O)NC(=O)[C@H](C)NC(=O)[C@H](Cc2c[nH]c3ccccc23)NC(=O)[C@H](Cc2ccc(C(=O)O)cc2)NC(=O)[C@H](C)NC1=O)[C@@H](C)O` (single isomer, unassigned) [compound 169], in assay [1], the IC50 fell in the range of 10 to 100 nM and the Ki lay within 10 to 100 nM. For the same compound, in assay [2], the IC50 was less than 10 nM and the Ki is less than 10 nM. In assay [3], the “6.25 uM % Lysed cells (1 h LDH)” value was 2%, the “25 uM % Lysed cells (1 h LDH)” value is recorded as 3% and the “50 uM % Lysed cells (1 h LDH)” value was 7%.

Take `CC(=O)N[C@@H](Cc1ccccc1)C(=O)N[C@]1(C)CCCCCCC=CCCC[C@@](C)(C(=O)N[C@@H](Cc2c[nH]cn2)C(=O)N[C@@H](CCCNC(=N)N)C(=O)N[C@@H](Cc2ccccc2)C(=O)N[C@@H](CC2CCCCC2)C(N)=O)NC(=O)[C@H](CC(C)C)NC(=O)[C@H](CCC(N)=O)NC(=O)[C@H](Cc2c[nH]cn2)NC(=O)[C@H](Cc2c[nH]c3ccccc23)NC(=O)[C@H](Cc2c[nH]cn2)NC(=O)[C@H](Cc2c[nH]cn2)NC1=O` [compound 55] (Ac-F[R8]HHWHQL[S5]HRF[Cha]-NH2; staple 2-9): in assay [1], the IC50 is more than 1000 nM and the Ki fell in the range of 100 to 1000 nM. For the same compound, in assay [2], the IC50 is more than 1000 nM and the Ki fell in the range of 100 to 1000 nM. In addition, in assay [3], the “6.25 uM % Lysed cells (1 h LDH)” value worked out at 1%, the “25 uM % Lysed cells (1 h LDH)” value came to 9% and the “50 uM % Lysed cells (1 h LDH)” value is reported as 13%.

Regarding `CC(=O)N[C@@H](CC(C)C)C(=O)N[C@H](C(=O)N[C@@H](Cc1ccccc1)C(=O)N[C@]1(C)CCCCCCC=CCCC[C@@](C)(C(=O)N[C@@H](C)C(=O)N[C@@H](C)C(=O)N[C@@H](Cc2c[nH]c3ccccc23)C(=O)N[C@H](C)C(N)=O)NC(=O)[C@H](CC(C)C)NC(=O)[C@H](CCC(N)=O)NC(=O)[C@H](C)NC(=O)[C@H](Cc2c[nH]c3ccccc23)NC(=O)[C@H](Cc2ccc(O)cc2)NC(=O)[C@H](C)NC1=O)[C@@H](C)O` [compound 211] (Ac-LTF[R8]AYWAQL[S5]AAW[dA]-NH2; staple 4-11), in assay [1], the IC50 lay in the range of 100 to 1000 nM and the Ki lay within 10 to 100 nM. Besides, in assay [2], the IC50 is less than 10 nM and the Ki was less than 10 nM. For the same compound, in assay [3], the “6.25 uM % Lysed cells (1 h LDH)” value was 5%, the “25 uM % Lysed cells (1 h LDH)” value is on record as 3% and the “50 uM % Lysed cells (1 h LDH)” value was 1%.

As to `CC(=O)N[C@@H](Cc1ccccc1)C(=O)N[C@]1(C)CCCCCCC=CCCC[C@@](C)(C(=O)N[C@@H](C)C(=O)N[C@@H](C)C(=O)N[C@@H](CC(C)C)C(N)=O)NC(=O)[C@H](CC(C)C)NC(=O)C2(CC2)NC(=O)[C@H](CCC(=O)O)NC(=O)[C@H](Cc2c[nH]c3ccccc23)NC(=O)[C@H](Cc2ccc(O)cc2)NC(=O)[C@H](C)NC1=O` [compound 15] (Ac-F[R8]AYWE[Ac3c]L[S5]AAL-NH2; staple 2-9), in assay [1], the IC50 is 100 to 1000 nM and the Ki was in the range of 10 to 100 nM. Besides, in assay [2], the IC50 lay in the range of 10 to 100 nM and the Ki lay in the range of 10 to 100 nM. Moreover, in assay [3], the “6.25 uM % Lysed cells (1 h LDH)” value is reported as 1%, the “25 uM % Lysed cells (1 h LDH)” value was found to be 2% and the “50 uM % Lysed cells (1 h LDH)” value came to 5%.

`CC(=O)N[C@@H](CC(C)C)C(=O)N[C@H](C(=O)N[C@@H](Cc1ccccc1)C(=O)N[C@]1(C)CCCCCCC=CCCC[C@@](C)(C(=O)N[C@@H](C)C(=O)N[C@@H](C)C(=O)NC(C)(C)C(=O)N[C@@H](C)C(N)=O)NC(=O)[C@H](CC(C)C)NC(=O)[C@H](CCC(N)=O)NC(=O)[C@H](C)NC(=O)[C@H](Cc2c[nH]c3ccccc23)NC(=O)[C@H](Cc2ccc(O)cc2)NC(=O)[C@H](C)NC1=O)[C@@H](C)O` (single isomer, unassigned) [compound 232]: in assay [1], the IC50 lay within 100 to 1000 nM and the Ki was 10 to 100 nM. In assay [2], the IC50 is less than 10 nM and the Ki is less than 10 nM. In assay [3], the “6.25 uM % Lysed cells (1 h LDH)” value came to 6%, the “25 uM % Lysed cells (1 h LDH)” value came to 5% and the “50 uM % Lysed cells (1 h LDH)” value is 5%.

Take `CCCC[C@H](NC(=O)[C@H](C)NC(=O)[C@H](C)NC(=O)[C@]1(C)CCCC=CCCCCCC[C@@](C)(NC(=O)[C@H](Cc2ccccc2)NC(=O)[C@@H](NC(=O)[C@H](CC(C)C)NC(C)=O)[C@@H](C)O)C(=O)N[C@@H](C)C(=O)N[C@@H](Cc2ccc(O)cc2)C(=O)N[C@@H](Cc2c[nH]c3ccccc23)C(=O)N[C@@H](C)C(=O)N[C@@H](CCC(N)=O)C(=O)N[C@@H](CC(C)C)C(=O)N1)C(=O)N[C@H](C)C(N)=O` (single isomer, unassigned) [compound 75]: in assay [1], the IC50 was 100 to 1000 nM and the inhibitory constant (Ki) lay in the range of 10 to 100 nM. In addition, in assay [2], the IC50 was 10 to 100 nM and the Ki was less than 10 nM. For the same compound, in assay [3], the “6.25 uM % Lysed cells (1 h LDH)” value is listed as −1%, the “25 uM % Lysed cells (1 h LDH)” value is 1% and the “50 uM % Lysed cells (1 h LDH)” value turned out to be 1%.

For the compound `CC[C@H](C)[C@H](NC(=O)[C@H](C)NC(=O)[C@H](C)NC(=O)[C@]1(C)CCCC=CCCCCCC[C@@](C)(NC(=O)[C@H](Cc2ccccc2)NC(C)=O)C(=O)N[C@@H](C)C(=O)N[C@@H](Cc2ccc(O)cc2)C(=O)N[C@@H](Cc2c[nH]c3ccccc23)C(=O)N[C@@H](CCC(=O)O)C(=O)NC2(CC2)C(=O)N[C@@H](CC(C)C)C(=O)N1)C(N)=O` [compound 19] (Ac-F[R8]AYWE[Ac3c]L[S5]AAI-NH2; staple 2-9), in assay [1], the IC50 lay within 10 to 100 nM and the Ki is 10 to 100 nM. In assay [2], the IC50 is 100 to 1000 nM and the Ki was in the range of 10 to 100 nM. Besides, in assay [3], the “6.25 uM % Lysed cells (1 h LDH)” value worked out at 2%, the “25 uM % Lysed cells (1 h LDH)” value came to 3% and the “50 uM % Lysed cells (1 h LDH)” value is given as 21%.

As for `CC[C@H](C)[C@H](NC(=O)[C@H](C)NC(=O)[C@H](C)NC(=O)[C@]1(C)CCCC=CCCCCCC[C@@](C)(NC(=O)[C@H](Cc2ccccc2)NC(=O)[C@@H](NC(=O)[C@H](CC(C)C)NC(C)=O)[C@@H](C)O)C(=O)N[C@@H](CCC(=O)O)C(=O)N[C@@H](Cc2ccc(O)cc2)C(=O)N[C@@H](Cc2c[nH]c3ccccc23)C(=O)N[C@@H](C)C(=O)N[C@@H](CCC(N)=O)C(=O)N[C@@H](CC(C)C)C(=O)N1)C(=O)N[C@H](C)C(N)=O` (single isomer, unassigned) [compound 217], in assay [1], the IC50 lay in the range of 100 to 1000 nM and the Ki was 10 to 100 nM. Besides, in assay [2], the IC50 was less than 10 nM and the Ki was less than 10 nM. Also, in assay [3], the “6.25 uM % Lysed cells (1 h LDH)” value stood at 2%, the “25 uM % Lysed cells (1 h LDH)” value amounted to 1% and the “50 uM % Lysed cells (1 h LDH)” value stood at 2%.
